Measurements from PMC11979273, “A phase I study to evaluate the safety, tolerability, and pharmacokinetics of HEC113995PA·H2O, a novel dual-acting serotonergic antidepressant, in healthy subjects” (Frontiers in Pharmacology, 2025).
Like-named read-outs stand apart in the source and are kept apart here.

How the values were obtained:
[1] = tested on: rodent; assay: In vivo rodent studies (comparison with Vilazodone, sedation); conditions: rodent behavioral despair models; unpublished data
[2] = tested on: mice; assay: Behavioral despair models, mice; type: in vivo; conditions: single, multiple, and chronic administrations, unpublished data
[3] = Food effect study, plasma pharmacokinetics; type: in vivo, human; conditions: for Cmax / MRT / half-life / Vd/F / Tmax: po, 20 mg; for Vd/F: read-out: Vz/F; for Tmax: N = 18, median (min, max)
Text: A total of 18 healthy subjects of both genders, were assigned randomly to three sequences A, B, and C (n = 6). All subjects received HEC113995PA·H2O tablets, with a total of 3 times administered during the trial, once per cycle, and a washout period of ≥11 days. In sequence A, the order of administration was as follows: fasting, after a standard meal, and after a high-fat meal. In sequence B, the order of administration was after a standard meal, after a high-fat meal, and fasting. Sequence C subjects were administered in the following order: after a high-fat meal, fasting, and after a standard meal. During the fed periods, a single oral dose of HEC113995PA·H2O tablet 20 mg was administered within 30 min after consumption of a standard meal (total calories: approximately 600 kcal), or a high-fat, high-calorie meal (total calories: approximately 800 kcal–1,000 kcal, which derives about 150, 250, and 500–600 kcal from protein, carbohydrate, and fat, respectively). Serial blood samples were collected before and after each cycle for PK determination of plasma concentration and the evaluation of pharmacokinetic characteristics. Safety and tolerability were assessed on days 4 and 28.
In the first dose group of single ascending-dose study, PK blood samples were collected at 0.5 h before administration and 0.5, 1, 1.5, 2, 2.5, 3, 4, 5, 6, 8, 10, 12, 24, 36, 48, and 72 h after administration. In other SAD groups, MAD groups and food effect study, PK blood samples were collected at 0.5 h before administration, and 1, 2, 3, 4, 5, 6, 7, 8, 10, 12, 24, 48, 72, 96, 120 and 144 h after administration. Approximately 4 mL of venous blood was obtained from each collection and placed in a vacuum collection vessel containing K2EDTA anticoagulant. The blood was centrifuged and packed according to the instruction provided by the Biological Sample Detection and Analysis Unit. Briefly, all samples were centrifuged at 4°C, 1,500 g for 10 min within 0.5 h after blood collection. After centrifugation, the plasma was aliquoted into two cryogenic storage tubes. The first tube (Tube A) contained at least 0.8 mL of plasma for analytical testing, and the remaining plasma is allocated into the backup tube (Tube B). The plasma samples were stored at −80°C within 1 h after aliquoting for further analysis.
The concentration of HEC113995PA·H2O in human plasma samples (K2EDTA) was quantitatively analyzed using the LC-MS/MS method. Plasma samples (50 μL) were processed using protein precipitation with 5 μL deuterated internal standard (HEC124659) and 100 μL acetonitrile. The Shimadzu LCMS-8060 system coupled with a GL Sciences Inc. InertSustain AQ-C18 HP column (50 × 2.1 mm, 3 μm) achieved chromatographic separation through gradient elution using 0.04% TFA aqueous solution (pH 2.1) and acetonitrile at 0.4 mL/min. ESI-positive mode detection employed optimized parameters: 300°C interface temperature, 250°C DL temperature, 3 L/min nebulizer gas, and 400°C heating block temperature.
Using WinNonlin 7.0 for non-compartmental analysis (NCA), pharmacokinetic (PK) parameters were meticulously calculated based on the actual sampling times for plasma, urine, and fecal samples from each subject post-administration. These parameters encompassed a comprehensive range, including the area under the concentration–time curve (AUC), AUC from time zero (pre-dose) to the time of the last measurable concentration (AUC0-t), and AUC from time zero (pre-dose) to infinity (AUC0-∞). Additionally, maximum observed plasma concentration (Cmax), time to achieve maximum plasma concentration (Tmax), terminal elimination half-life (t1/2), elimination rate constant (Ke), apparent volume of distribution (Vd/F), clearance rate (CL/F), and mean residence time (MRT) were also determined. The AUC0-t and AUC0-∞ values were computed using the linear trapezoidal rule method. Tmax and Cmax were ascertained based on the actual observed data. […]

[4] = both sexes, human, plasma, single oral 20 mg, fasted, N = 18, mean (SD)
[5] = both sexes, human, plasma, single oral 20 mg, fed with high-fat, high-calorie meal, N = 18, mean (SD)
[6] = both sexes, human, plasma, single oral 20 mg, fed with standard meal, N = 18, mean (SD)
[7] = single 20 mg tablet, fed vs fasted

For `Cc1nc(-c2cnc(N3CCN(CCCc4c[nH]c5ccc(C#N)cc45)CC3)nc2)sc1C(N)=O` [HEC113995PA·H2O], the “efficacy relative to HEC61139 (Vilazodone)” value [1] was “more potent efficacy”, the duration of immobility [2] was “significantly reduce” and the Cmax [3, 4] was 63 ng/mL. For the same molecule, the MRT [3, 4] was 38.3 h, the half-life [3, 4] was 29 h and the Vd/F [3, 4] was 447 L. It also gave a Tmax ([3]; both sexes, human, plasma, single oral 20 mg, fasted) of 4 h, a Cmax [3, 5] of 117 ng/mL and an MRT [3, 5] of 35.8 h. It also gave a half-life [3, 5] of 30.5 h, a Vd/F [3, 5] of 297 L and a Tmax ([3]; both sexes, human, plasma, single oral 20 mg, fed with high-fat, high-calorie meal) of 5 h. For the same molecule, the Cmax [3, 6] was 106 ng/mL, the MRT [3, 6] was 35.4 h and the half-life [3, 6] was 29.5 h. The Vd/F [3, 6] was 298 L, the Tmax ([3]; both sexes, human, plasma, single oral 20 mg, fed with standard meal) was 5 h and the AUC(0-inf) [3, 4] was 1960 ng·h/mL. For the same molecule, the AUC(0-t) [3, 4] was 1860 ng·h/mL, the “food effect, increases in exposure parameters” value ([3]; discussion summary) was 52%–93 and the “food impact on Tmax and t1/2” value ([3]; single 20 mg tablet) was “no significant impacts”. The “increase of AUC0-∞ by food intake” value [3, 7] was 52.15∼58.20%, the “increase of Cmax by food intake” value [3, 7] was 77.09∼93.45% and the “increase of AUC0-∞, high-fat meal vs standard meal” value ([3]; single 20 mg tablet, P > 0.05) was 3.97%. The “increase of Cmax, high-fat meal vs standard meal” value ([3]; single 20 mg tablet, P > 0.05) was 9.24%, the CL/F ([3]; single oral 20 mg, fasted, N = 18, mean (SD)) was 10.8 (2.5) L/h and the CL/F ([3]; single oral 20 mg, fed with high-fat, high-calorie meal, N = 18, mean (SD)) was 6.8 (1.5) L/h. The CL/F ([3]; single oral 20 mg, fed with standard meal, N = 18, mean (SD)) was 7.1 (1.6) L/h.
